Measured values as given in PubChem BioAssay (NCI).
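Values below derive from 48-hour exposures of cells grown in 96-well plates, with endpoints linearly interpolated between the two concentrations bracketing the appropriate inhibition level. TGI is the concentration that stops growth completely.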

Experiments:
Test in all cases: NCI anticancer screen, dose series, 48 h
UACC-257 melanoma = system: UACC-257 melanoma
EKVX NSCLC = system: EKVX NSCLC
SR leukemia = system: SR leukemia
CAKI-1 renal = system: CAKI-1 renal
DU-145 prostate = system: DU-145 prostate
LOX IMVI melanoma = system: LOX IMVI melanoma
PC-3 prostate = system: PC-3 prostate
UACC-62 melanoma = system: UACC-62 melanoma
M14 melanoma = system: M14 melanoma
A498 renal = system: A498 renal
OVCAR-4 ovarian = system: OVCAR-4 ovarian
TK-10 renal = system: TK-10 renal
MDA-N = system: MDA-N
ACHN renal = system: ACHN renal
HCT-116 colon = system: HCT-116 colon
NCI/ADR-RES ovarian = system: NCI/ADR-RES ovarian
NCI-H23 lung = system: NCI-H23 lung
MCF7 breast = system: MCF7 breast
CCRF-CEM leukemia = system: CCRF-CEM leukemia
SK-MEL-2 melanoma = system: SK-MEL-2 melanoma
KM12 colon = system: KM12 colon
MDA-MB-435 = system: MDA-MB-435
HL-60(TB) leukemia = system: HL-60(TB) leukemia
U251 CNS = system: U251 CNS
COLO 205 colon = system: COLO 205 colon
SK-OV-3 ovarian = system: SK-OV-3 ovarian
SW-620 colon = system: SW-620 colon
MDA-MB-231 breast = system: MDA-MB-231 breast
SK-MEL-5 melanoma = system: SK-MEL-5 melanoma
RXF 393 renal = system: RXF 393 renal
OVCAR-8 ovarian = system: OVCAR-8 ovarian
RPMI-8226 leukemia = system: RPMI-8226 leukemia
HCC-2998 colon = system: HCC-2998 colon
HOP-62 NSCLC = system: HOP-62 NSCLC
SNB-19 CNS = system: SNB-19 CNS
A549 NSCLC = system: A549 NSCLC
MOLT-4 leukemia = system: MOLT-4 leukemia
K-562 leukemia = system: K-562 leukemia
SK-MEL-28 melanoma = system: SK-MEL-28 melanoma
T-47D breast = system: T-47D breast
SF-295 CNS = system: SF-295 CNS
HS 578T breast = system: HS 578T breast
NCI-H522 lung = system: NCI-H522 lung
BT-549 breast = system: BT-549 breast
NCI-H226 lung = system: NCI-H226 lung
786-0 renal = system: 786-0 renal
UO-31 renal = system: UO-31 renal
OVCAR-3 ovarian = system: OVCAR-3 ovarian
NCI-H460 lung = system: NCI-H460 lung
HOP-92 NSCLC = system: HOP-92 NSCLC
SN12C renal = system: SN12C renal
HCT-15 colon = system: HCT-15 colon
IGROV1 ovarian = system: IGROV1 ovarian
SF-268 CNS = system: SF-268 CNS
OVCAR-5 ovarian = system: OVCAR-5 ovarian
HT29 colon = system: HT29 colon
SF-539 CNS = system: SF-539 CNS

Measured: TGI

CC12Nc3ccccc3N1C(=O)c1ccccc12 (configuration not stated)
> 100 µM: all assays above
